Laboratory results from patent US10731159B2, “Cationic lipid” (DAIICHI SANKYO COMPANY, LIMITED, priority 2013, dated 2020).

How the values were obtained:
Assay type in all cases: physicochemical
[1] = Average particle size of nucleic acid lipid particle (NICOMP 380ZLS)
Description: The particle size of the liposome was measured using Zeta Potential/Particle Sizer NICOMP™ 380ZLS (Particle Sizing Systems, LLC). In the tables, the average particle size is indicated by a volume-average particle size, and the numeric value following ±represents a deviation.

[2] = Ratio of polynucleotide/mRNA to lipid (wt/wt)
Description: The nucleic acid lipid particle dispersion was mixed with acetonitrile and chloroform at a ratio of 1:1:1 and centrifuged at 15,000 rpm for 2 minutes. Then, the aqueous layer obtained as an upper layer was recovered, followed by the extraction of the double-stranded polynucleotide. The amount of the double-stranded polynucleotide in the sample was measured by ion-exchange chromatography (system: Agilent 1100 series, column: TSKgel DEAE-2SW (2.6×150 mm) (Tosoh Corp), buffer A: 20% acetonitrile, buffer B: 20% acetonitrile and 1.6 M ammonium formate, gradient (B %): 30-55% (0-20 min), flow rate: 1 mL/min, temperature: 40° C., detection: 260 nm).
The amount of the phospholipid in the nucleic acid lipid particle dispersion was measured using Phospholipid C-Test Wako (Wako Pure Chemical Industries Ltd.) according to the attached document. Specifically, the phospholipid in the sample was quantified in the presence of a 1% Triton X-100 detergent.
(§1) The amounts of cholesterol and LP in the nucleic acid lipid particle dispersion were measured by reverse-phase chromatography (system: Agilent 1100 series, column: Chromolith Performance RP-18 endcapped 100-3 monolithic HPLC-column (Merck), buffer A: 0.01% trifluoroacetic acid, buffer B: 0.01% trifluoroacetic acid and methanol, gradient (B %): 87-92% (0-10 min), flow rate: 2 mL/min, temperature: 50° C., detection: 205 nm).
(§2) The total amount of lipids was calculated from the amount of the phospholipid and the compositional ratio of lipid components constituting the liposome, and the ratio of the polynucleotide to the lipid was calculated from the aforementioned amount of the polynucleotide and the total amount of lipids according to the following expression: [Double-stranded polynucleotide concentration]/[Total lipid concentration] (wt/wt)
as §2, with “phospholipid, the amount of cholesterol, and the amount of LP,” for “phospholipid”
The amount of the double-stranded polynucleotide in a sample from the nucleic acid lipid particle dispersion was measured in the presence of a 5% Triton X-100 detergent by ion-exchange chromatography (system: Agilent 1100 series, column: DNAPac PA200 (4×250 mm) (Thermo Fisher Scientific K.K.), buffer A: 10 mM Tris, 25 mM sodium perchlorate, and 20% ethanol, pH 7.0, buffer B: 10 mM Tris, 250 mM sodium perchlorate, and 20% ethanol, pH 7.0, gradient (B %): 20-70% (0-15 min), flow rate: 0.5 mL/min, temperature: 40° C., detection: 260 nm).
as §1, with “82-92%” for “87-92%”
The total amount of lipids was calculated from the amount of the phospholipid, the amount of cholesterol, and the amount of LP, and the compositional ratio of lipid components constituting the liposome, and the ratio of the mRNA to the lipid was calculated from the “amount of the mRNA in the presence of the detergent” of the preceding paragraph (2) according to the following expression: [mRNA concentration in the presence of the detergent]/[Total lipid concentration] (wt/wt)

[3] = Rate of encapsulation of polynucleotide/mRNA (Quant-iT RiboGreen, with and without Triton X-100)
Description: The rate of encapsulation of the double-stranded polynucleotide was measured using Quant-iT RiboGreen RNA Assay kit (Invitrogen Corp.) according to the attached document.
(§3) Specifically, the double-stranded polynucleotide in the nucleic acid lipid particle dispersion was quantified in the presence and absence of a 0.015% Triton X-100 detergent, and the rate of encapsulation was calculated according to the following expression: {[Amount of the double-stranded polynucleotide in the presence of the detergent]−[Amount of the double-stranded polynucleotide in the absence of the detergent]}/[Amount of the double-stranded polynucleotide in the presence of the detergent]}×100(%) (3) Ratio of Double-Stranded Polynucleotide to Lipid
The rate of encapsulation of the mRNA was measured using Quant-iT RiboGreen RNA Assay kit (Invitrogen Corp.) according to the attached document.
as §3, with “mRNA” for “double-stranded polynucleotide”, “mRNA” for “Double-Stranded Polynucleotide”

[4] = particles of Example 31, volume-average particle size ± deviation
[5] = particles of Example 31: DSPC:Chol:LP:PEG-C-DMA=20:48:30:2, CT-157/CT-169 double-stranded polynucleotide

Row | Structure (SMILES) | Average particle size [1, 4] [nm] | Ratio of polynucleotide to lipid siRNA/lipid ([2]; particles of Example 31, total lipids calculated from phospholipid, cholesterol and LP amounts (Table 4)) [wt/wt] | Rate of polynucleotide encapsulation [3, 5] [%] | Average particle size ([1]; Example 55: particles prepared as in Example 31, ± deviation) [nm] | Ratio of polynucleotide to lipid siRNA/lipid ([2]; Example 55: particles prepared as in Example 31) [wt/wt] | Ratio of polynucleotide to lipid siRNA/lipid ([2]; particles of Example 31, total lipids calculated from phospholipid amount and compositional ratio (Table 3)) [wt/wt] | Rate of polynucleotide encapsulation ([3]; Example 55: particles prepared as in Example 31 (β-catenin double-stranded polynucleotide)) [%]
1 | CCCCC/C=C\C/C=C\CCCCCCCC(CCCCCCCCCC)OC(=O)OCCCN(C)C (stereo not drawn) [Example 8, 3-Dimethylaminopropyl(9Z,12Z)-octacosa-19,22-dien-11-yl Carbonate] | 157 ± 46 | 0.072 | 96.4 |  |  |  | 
2 | CCCCC/C=C\C/C=C\CCCCCCCCC(CCCCCCCC/C=C\C/C=C\CCCCC)OC(=O)OCCN(C)C [Reference Example 2, 2-(Dimethylamino)ethyl(6Z,9Z,28Z,31Z)-heptatriaconta-6,9,28,31-tetraen-19-yl Carbonate, reference compound] | 139 ± 50 |  | 89.0 | 165 ± 11 | 0.055 | 0.104 | 94
